Measurements reported in paper PMC4163838 (The Biochemical journal, 2014).

How the values were obtained:
[1] = biological target: T1, AKR1D1 (human steroid 5β-reductase) (Homo sapiens, UniProt P51857); assay: stopped-flow competition with excess NADPH, energy transfer fluorescence; assay type: binding; settings: dissociation rate constant from binary complex; 37 °C, pH 6.0, 4 % acetonitrile
T1 sequence (P51857 1-326): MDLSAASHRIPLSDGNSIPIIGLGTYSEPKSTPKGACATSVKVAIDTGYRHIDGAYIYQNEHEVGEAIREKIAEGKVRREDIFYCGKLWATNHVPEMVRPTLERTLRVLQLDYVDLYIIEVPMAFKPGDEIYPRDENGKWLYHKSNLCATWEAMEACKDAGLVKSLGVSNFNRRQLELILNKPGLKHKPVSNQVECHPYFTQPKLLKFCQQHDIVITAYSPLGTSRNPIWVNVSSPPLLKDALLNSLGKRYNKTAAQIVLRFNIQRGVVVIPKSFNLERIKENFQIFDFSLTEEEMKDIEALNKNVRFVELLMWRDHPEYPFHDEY

[2] = biological target: T1, AKR1D1 (human steroid 5β-reductase); assay: fluorescence titration; assay type: binding
[3] = biological target: T1, AKR1D1 (human steroid 5β-reductase); assay: stopped-flow binding, energy transfer fluorescence; settings: biphasic binding to free enzyme; 37 °C, pH 6.0, 4 % acetonitrile

| Structure (SMILES) | Kd [2] | also measured |
| --- | --- | --- |
| NC(=O)c1ccc[n+]([C@@H]2O[C@H](COP(=O)(O)OP(=O)(O)OC[C@H]3O[C@@H](n4cnc5c(N)ncnc54)[C@H](OP(=O)(O)O)[C@@H]3O)[C@@H](O)[C@H]2O)c1 [NADP^+] | – | koff [1]: 0.36 ± 0.01 s⁻¹ |
| CC(C)CCC[C@@H](C)[C@H]1CC[C@H]2[C@@H]3[C@H](O)CC4=CC(=O)CC[C@]4(C)[C@H]3CC[C@]12C [7α-hydroxycholestenone, 7α-hydroxy-4-cholesten-3-one] | 1300 ± 100 nM | – |
| NC(=O)C1=CN([C@@H]2O[C@H](COP(=O)(O)OP(=O)(O)OC[C@H]3O[C@@H](n4cnc5c(N)ncnc54)[C@H](OP(=O)(O)O)[C@@H]3O)[C@@H](O)[C@H]2O)C=CC1 [NADPH] | – | stopped-flow binding, energy transfer fluorescence [3]: AKR1D1 was mixed with NADPH and the process of NADPH binding to AKR1D1 was directly monitored |
| CC(C)(C)NC(=O)[C@H]1CC[C@H]2[C@@H]3CC[C@H]4NC(=O)C=C[C@]4(C)[C@H]3CC[C@]12C [finasteride] | 1140 ± 90 nM | – |
